Test system: CD45.1+ HSPCs
Design: species or system mice
Settings: mouse, in vivo
Protocol: Heterotypic cocultures containing dsRed+ LSCs, CD45.1+ HSPCs, and GFP+ MSCs were exposed to compounds for 48 hours, then transplanted en masse post trypsinization with untreated wild-type helper splenocytes (CD45.1+CD45.2+) into lethally irradiated, wildtype recipient animals (CD45.2+). Latency of leukemia onset was compared for mice receiving cocultures treated with compound compared to DMSO control treated cocultures. The engraftment of the normal HSPCs treated and injected along with the leukemia cells was quantified by FACs analysis of the bone marrow of mice alive at the 16 week endpoint across treatments.
As in vivo readouts may better reflect hematopoietic stem cell function compared to in vitro readouts (Purton, L. E., and Scadden, D. T. (2007). Cell Stem Cell 1, 263-270.; Bock, T. A. (1997). Stem Cells 15 Suppl 1, 185-195.), our results were confirmed using murine transplantation studies. […] Compounds that increase disease latency relative to DMSO control are considered active. […] Bone marrow repopulating ability is a functional measure of normal HSPCs, assessed by quantifying long-term engraftment and differentiation patterns in recipient mice (Bock, T. A. (1997). Stem Cells 15 Suppl 1, 185-195.; Nguyen, L. V., Vanner, R., Dirks, P., and Eaves, C. J. (2012). Nat Rev Cancer 12, 133-143.). […]

CCC(C)C(=O)OC1CC(C)C=C2C=CC(C)C(CCC(O)CC(O)CC(=O)O)C21 (stereo not shown) [Lovastatic acid]
differentiation patterns of engrafted HSPCs: normal differentiation patterns

Source: patent publication US20130338092A1, “COMPOUNDS AND METHODS FOR TARGETING LEUKEMIC STEM CELLS” (The Broad Institute, Inc., priority 2011, published 2013)
